We go through one compound from PMC12391391, “The balance between B55α and Greatwall expression levels predicts sensitivity to Greatwall inhibition in cancer cells” (Nature Communications, 2025).

For data set [1], the target named is T1, Greatwall kinase (GWL, MASTL) (Homo sapiens, UniProt Q96GX5, K72M).
T1 construct: full-length
T1 sequence (Q96GX5 1-879 K72M): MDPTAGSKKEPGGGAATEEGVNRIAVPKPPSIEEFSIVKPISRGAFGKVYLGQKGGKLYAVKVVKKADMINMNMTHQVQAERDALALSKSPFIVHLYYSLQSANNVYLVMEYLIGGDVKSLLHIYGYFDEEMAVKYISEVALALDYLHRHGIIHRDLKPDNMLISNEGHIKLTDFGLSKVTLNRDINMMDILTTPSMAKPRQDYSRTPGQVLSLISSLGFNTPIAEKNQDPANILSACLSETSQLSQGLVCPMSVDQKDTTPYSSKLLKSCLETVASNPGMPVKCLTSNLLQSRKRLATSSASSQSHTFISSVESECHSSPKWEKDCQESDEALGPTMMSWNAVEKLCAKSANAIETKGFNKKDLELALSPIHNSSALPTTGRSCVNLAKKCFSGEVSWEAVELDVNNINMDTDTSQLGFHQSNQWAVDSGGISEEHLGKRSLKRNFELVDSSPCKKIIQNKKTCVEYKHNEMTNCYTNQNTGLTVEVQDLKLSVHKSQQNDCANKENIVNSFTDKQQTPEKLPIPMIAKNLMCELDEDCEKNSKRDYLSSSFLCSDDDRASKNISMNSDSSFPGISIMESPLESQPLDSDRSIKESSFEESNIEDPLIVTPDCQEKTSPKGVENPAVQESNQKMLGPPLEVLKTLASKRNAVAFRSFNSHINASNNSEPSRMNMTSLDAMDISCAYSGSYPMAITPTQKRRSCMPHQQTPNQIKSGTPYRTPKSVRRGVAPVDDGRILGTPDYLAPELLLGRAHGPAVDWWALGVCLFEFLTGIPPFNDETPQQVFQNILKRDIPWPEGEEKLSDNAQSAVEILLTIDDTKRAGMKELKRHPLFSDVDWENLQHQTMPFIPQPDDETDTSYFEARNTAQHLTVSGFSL
The data set is described as follows: HTRF kinase assay with purified full-length GWL (K72M) and ENSA. The data set is classed as biochemical.

Data set [2] can be described thus: in vitro. Details: intrinsic clearance in mouse microsomes. To be noted: liver microsomes; mouse liver microsomes. The text has this:
(§1) We selected compound 1 as the lead exemplar of cluster 3 and leveraged it as a foundation for subsequent drug development (Fig. 1a). Structure-activity relationship studies and pharmacokinetic profiling produced several derivative molecules, of which compound 21 provided the best combination of outstanding inhibitory potential, low clearance in mouse microsomes and acceptable solubility (Fig. 1a–c and Supplementary Tables 1–4). […] This assessment was supported by structural modelling of the interaction between compound 21 and the active site of GWL (Fig. 1d). In further support of its GWL-targeting properties, compound 21 diminished the phosphorylation of the canonical GWL substrate ENSA(S67) in Xenopus laevis cytostatic factor (CSF) egg extract (Supplementary Fig. 2). Having satisfied the criteria of prospective GWL inhibitor, the racemic compound 21 was registered as UOS-00054604 and, for the remainder of the manuscript, is referred to as C-604.
(Liver microsomes are a subcellular fraction often used to study metabolism.)

The nature of data set [3]: physchem. Also noted: aqueous solubility at pH 7.0. To be noted: pH 7.0; buffer pH 7.0; aqueous buffer pH 7.0.
Text: as §1

The target in data set [4] is CDK1/cyclinB (Homo sapiens, UniProt P06493). The experiment in a line: biochemical. Also noted: CDK1/cyclin B and off-target kinase inhibition assay.
Chain of CDK1/cyclinB (P06493 whole entry): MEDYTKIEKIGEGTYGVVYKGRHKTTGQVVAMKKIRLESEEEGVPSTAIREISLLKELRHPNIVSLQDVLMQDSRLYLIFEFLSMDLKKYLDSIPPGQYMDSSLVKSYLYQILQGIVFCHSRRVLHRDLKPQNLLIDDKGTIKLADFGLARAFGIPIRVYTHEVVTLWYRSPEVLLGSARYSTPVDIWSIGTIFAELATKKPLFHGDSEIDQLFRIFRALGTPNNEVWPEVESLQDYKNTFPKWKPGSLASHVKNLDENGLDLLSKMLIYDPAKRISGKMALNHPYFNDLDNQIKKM
Chain of CDK1/cyclinB (P14635 whole entry partner): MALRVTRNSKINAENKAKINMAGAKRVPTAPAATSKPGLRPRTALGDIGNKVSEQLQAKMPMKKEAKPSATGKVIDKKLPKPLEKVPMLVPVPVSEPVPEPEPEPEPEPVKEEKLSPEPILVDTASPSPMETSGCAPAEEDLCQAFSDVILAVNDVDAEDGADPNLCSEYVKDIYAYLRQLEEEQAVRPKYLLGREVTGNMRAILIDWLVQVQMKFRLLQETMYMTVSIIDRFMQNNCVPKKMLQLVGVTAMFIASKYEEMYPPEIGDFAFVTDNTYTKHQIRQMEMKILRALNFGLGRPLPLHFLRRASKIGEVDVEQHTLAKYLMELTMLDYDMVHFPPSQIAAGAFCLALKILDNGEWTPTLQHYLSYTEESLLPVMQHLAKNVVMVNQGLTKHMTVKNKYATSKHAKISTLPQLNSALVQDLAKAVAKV
For data set [5], the target named is HIPK2 (Homo sapiens, UniProt Q9H2X6). The experiment in a line: biochemical. Details: LanthaScreen kinase activity assay (Thermo Fisher), dose-dependent inhibition by C-604. The following applies: read-out: IC50 (C-604). The method, then:
(§2) To identify potential C-604 off-targets, we utilised a commercially available off-target screening service (Thermo Fisher Scientific) to assess the impact of C-604 on the in vitro activity of 100 human kinases (Supplementary Fig. 8a). Out of 100 tested targets, C-604 (1 µM) inhibited GWL (inhibition 95%) and an additional 10 kinases (inhibition ≥ 80%). […] The in vitro off-target effects of compound C-604 were determined by assessing its inhibitory potential in a panel of 100 human kinases using the LanthaScreen Kinase Activity Assay (Thermo Fisher Scientific).

Data set [6] deals with MARK3 (Homo sapiens, UniProt P27448). The data set is described as follows: biochemical. To be noted: read-out: IC50 (C-604). Also noted: LanthaScreen kinase activity assay (Thermo Fisher), dose-dependent inhibition by C-604. The method, then:
as §2

Data set [7] deals with T2, PRKD2 (Homo sapiens, UniProt Q9BZL6).
T2 sequence (Q9BZL6 1-878): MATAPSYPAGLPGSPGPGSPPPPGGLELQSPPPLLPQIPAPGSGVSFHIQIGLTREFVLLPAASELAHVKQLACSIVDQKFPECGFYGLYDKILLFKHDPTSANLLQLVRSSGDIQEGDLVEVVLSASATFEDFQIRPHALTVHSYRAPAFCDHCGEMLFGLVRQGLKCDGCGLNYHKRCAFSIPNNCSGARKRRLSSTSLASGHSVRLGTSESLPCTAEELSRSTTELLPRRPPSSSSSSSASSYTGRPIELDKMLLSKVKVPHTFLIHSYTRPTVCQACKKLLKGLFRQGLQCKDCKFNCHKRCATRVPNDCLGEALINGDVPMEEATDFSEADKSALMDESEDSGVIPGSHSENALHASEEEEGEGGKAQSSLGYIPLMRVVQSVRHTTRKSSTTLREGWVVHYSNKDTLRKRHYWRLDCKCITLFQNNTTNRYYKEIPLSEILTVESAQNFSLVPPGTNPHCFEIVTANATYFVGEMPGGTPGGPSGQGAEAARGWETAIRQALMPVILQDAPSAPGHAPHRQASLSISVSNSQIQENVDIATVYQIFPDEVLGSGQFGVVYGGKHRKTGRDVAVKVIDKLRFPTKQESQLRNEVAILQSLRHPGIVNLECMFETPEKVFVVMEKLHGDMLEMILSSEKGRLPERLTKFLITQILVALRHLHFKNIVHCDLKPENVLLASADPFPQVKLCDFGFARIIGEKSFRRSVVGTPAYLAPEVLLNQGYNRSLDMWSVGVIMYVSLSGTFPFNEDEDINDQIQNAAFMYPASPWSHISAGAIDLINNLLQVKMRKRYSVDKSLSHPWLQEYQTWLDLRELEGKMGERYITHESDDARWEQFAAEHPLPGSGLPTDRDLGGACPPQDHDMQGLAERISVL
The experiment in a line: biochemical. Also noted: LanthaScreen kinase activity assay (Thermo Fisher), dose-dependent inhibition by C-604. To be noted: read-out: IC50 (C-604). The method, then:
as §2

As a reminder, the IC50 is the midpoint of a concentration-inhibition curve. Broadly, the microsomal CLint is a measure of how fast metabolising enzymes remove a compound, apart from limits set by blood flow. By solubility is commonly meant how much of the substance goes into solution per volume.

Bounds are passed on as bounds.

Chain of MARK3 (P27448 whole entry): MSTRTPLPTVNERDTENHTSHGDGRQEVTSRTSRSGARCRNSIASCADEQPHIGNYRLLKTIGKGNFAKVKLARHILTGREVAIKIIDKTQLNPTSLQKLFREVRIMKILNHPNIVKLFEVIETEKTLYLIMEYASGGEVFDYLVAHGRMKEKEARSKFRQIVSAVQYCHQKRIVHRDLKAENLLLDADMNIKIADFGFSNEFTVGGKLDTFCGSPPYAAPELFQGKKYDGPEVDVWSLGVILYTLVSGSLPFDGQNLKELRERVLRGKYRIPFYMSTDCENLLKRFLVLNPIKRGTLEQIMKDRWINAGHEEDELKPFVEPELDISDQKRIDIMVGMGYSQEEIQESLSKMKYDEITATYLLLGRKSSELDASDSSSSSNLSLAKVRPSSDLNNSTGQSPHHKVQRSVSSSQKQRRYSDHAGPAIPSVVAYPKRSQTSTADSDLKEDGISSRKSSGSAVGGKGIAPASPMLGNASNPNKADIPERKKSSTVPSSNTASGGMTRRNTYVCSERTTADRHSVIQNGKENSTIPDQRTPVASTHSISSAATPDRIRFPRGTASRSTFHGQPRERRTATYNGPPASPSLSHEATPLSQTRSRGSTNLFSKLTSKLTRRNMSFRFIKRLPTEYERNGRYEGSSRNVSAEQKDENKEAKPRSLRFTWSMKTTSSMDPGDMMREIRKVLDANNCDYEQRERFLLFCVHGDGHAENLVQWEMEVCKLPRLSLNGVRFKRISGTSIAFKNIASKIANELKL
Chain of HIPK2 (Q9H2X6 whole entry): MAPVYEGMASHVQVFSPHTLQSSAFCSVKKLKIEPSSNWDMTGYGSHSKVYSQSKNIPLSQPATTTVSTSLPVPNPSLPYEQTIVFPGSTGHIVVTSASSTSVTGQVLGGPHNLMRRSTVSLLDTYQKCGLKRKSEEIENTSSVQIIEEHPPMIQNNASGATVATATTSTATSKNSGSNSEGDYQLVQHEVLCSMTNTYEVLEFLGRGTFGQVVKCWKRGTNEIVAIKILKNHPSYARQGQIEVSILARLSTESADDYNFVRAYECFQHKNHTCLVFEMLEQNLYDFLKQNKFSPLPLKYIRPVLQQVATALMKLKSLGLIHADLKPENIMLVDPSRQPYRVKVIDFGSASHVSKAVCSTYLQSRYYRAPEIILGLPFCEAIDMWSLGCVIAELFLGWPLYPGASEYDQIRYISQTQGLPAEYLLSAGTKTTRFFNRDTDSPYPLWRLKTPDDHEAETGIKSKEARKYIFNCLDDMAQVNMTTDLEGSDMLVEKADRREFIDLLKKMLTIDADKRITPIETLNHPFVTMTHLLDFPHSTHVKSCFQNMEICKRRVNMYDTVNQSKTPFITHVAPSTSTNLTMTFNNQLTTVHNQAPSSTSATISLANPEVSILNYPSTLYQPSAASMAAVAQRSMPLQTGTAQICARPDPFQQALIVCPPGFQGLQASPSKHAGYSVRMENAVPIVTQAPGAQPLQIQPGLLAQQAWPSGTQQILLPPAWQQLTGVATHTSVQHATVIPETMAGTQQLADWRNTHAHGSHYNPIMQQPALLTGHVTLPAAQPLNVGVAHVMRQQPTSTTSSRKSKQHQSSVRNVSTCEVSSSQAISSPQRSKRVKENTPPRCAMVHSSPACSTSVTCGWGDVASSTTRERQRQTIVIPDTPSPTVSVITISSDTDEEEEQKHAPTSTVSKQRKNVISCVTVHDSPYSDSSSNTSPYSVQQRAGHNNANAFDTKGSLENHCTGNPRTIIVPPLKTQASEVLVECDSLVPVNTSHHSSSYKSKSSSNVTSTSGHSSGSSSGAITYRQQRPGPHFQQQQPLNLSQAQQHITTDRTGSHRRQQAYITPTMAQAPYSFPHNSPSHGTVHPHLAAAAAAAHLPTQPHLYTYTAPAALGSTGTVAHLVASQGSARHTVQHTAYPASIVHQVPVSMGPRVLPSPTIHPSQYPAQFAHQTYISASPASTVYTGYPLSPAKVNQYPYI

On to `CNC(=O)c1c[nH]c2ncc(-c3ccc(OCCN4CCC(c5ccccc5)C4)cc3)nc12` (racemic) [compound 21, C-604], for which the concentration for half-maximal inhibition (IC50) in data set [1] is 9 ± 7.7 nM; in data set [4], greater than 30000 nM; in data set [5] it was 43 nM; in data set [6] it was 480 nM; in data set [7], 373 nM. Besides, the microsomal CLint in data set [2] was 24 µL/min/mg. In data set [3], the solubility came to 72 µM.
